Measured values published in the supplement of paper PMC9013687.

Assays:
Danio rerio embryo [1] = conditions: exposure time: 4 dpf
Protocol: (§1)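 Zebrafish embryos (UFZ-OBI strain) were exposed from 2 hpf for 48 h (2 dpf) or 96 h (4 dpf) at 28 °C; spontaneous tail coiling was scored at 25 hpf. Morphological features from automated image analysis (FishInspector), heart rate and locomotor response were fitted with drc models. Quantal endpoints were dichotomised at 2.5 SD from controls and fitted with a log-logistic model; heart rate, pigmentation and STC were normalised to the replicate control mean. Betamethasone was tested as betamethasone dipropionate, diflorasone as diflorasone diacetate.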

Danio rerio embryo [2] = tested on: Danio rerio embryo
Protocol: as §1

Danio rerio embryo [3] = conditions: exposure time: 4 dpf; remark: listed apart in the source
Protocol: as §1

Danio rerio embryo [4] = conditions: exposure time: 4 dpf; remark: listed apart in the source
Protocol: as §1

Danio rerio embryo [5] = assay: EC50 Eye size_Decrease; conditions: exposure time: 4 dpf
Protocol: as §1

Danio rerio embryo [6] = assay: EC50 Curvature_Increase
Protocol: as §1

Danio rerio embryo [7] = assay: EC50 Body length_Decrease; conditions: exposure time: 4 dpf
Protocol: as §1

Danio rerio embryo [8] = assay: EC50 Bladder size_Decrease; conditions: exposure time: 4 dpf
Protocol: as §1

Danio rerio embryo [9] = assay: EC50 Pericard size_Increase
Protocol: as §1

Danio rerio embryo [10] = assay: EC50 Yolk sac size_Increase
Protocol: as §1

Danio rerio embryo [11] = assay: EC50 Eye-jaw distance_Decrease; conditions: exposure time: 4 dpf
Protocol: as §1

Danio rerio embryo [12] = assay: EC50 Otolith-eye distance_Decrease; conditions: exposure time: 4 dpf
Protocol: as §1

Danio rerio embryo [13] = assay: EC10 LMR dark; higher = less potent; conditions: exposure time: 4 dpf
Protocol: as §1

Danio rerio embryo [14] = assay: EC20 LMR dark; higher = less potent; conditions: exposure time: 4 dpf
Protocol: as §1

Danio rerio embryo [15] = assay: EC10 Heart rate; higher = less potent; conditions: exposure time: 4 dpf
Protocol: as §1

Danio rerio embryo [16] = assay: EC10 Lack of SB; higher = less potent; conditions: exposure time: 4 dpf
Protocol: as §1

Danio rerio embryo [17] = assay: EC20 Lack of SB; higher = less potent; conditions: exposure time: 4 dpf
Protocol: as §1

Danio rerio embryo [18] = assay: EC20 Any effect; higher = less potent
Protocol: as §1

Danio rerio embryo [19] = assay: EC10 Any effect; higher = less potent
Protocol: as §1

Danio rerio embryo [20] = assay: EC20 Heart rate; higher = less potent; conditions: exposure time: 4 dpf
Protocol: as §1

Danio rerio embryo [21] = assay: EC20 Eye size_Decrease; higher = less potent; conditions: exposure time: 4 dpf
Protocol: as §1

Danio rerio embryo [22] = assay: EC10 Eye size_Decrease; higher = less potent; conditions: exposure time: 4 dpf
Protocol: as §1

Danio rerio embryo [23] = assay: EC10 Curvature_Increase; higher = less potent
Protocol: as §1

Danio rerio embryo [24] = assay: EC20 Curvature_Increase; higher = less potent
Protocol: as §1

Danio rerio embryo [25] = assay: EC20 Body length_Decrease; higher = less potent; conditions: exposure time: 4 dpf
Protocol: as §1

Danio rerio embryo [26] = assay: EC10 Body length_Decrease; higher = less potent; conditions: exposure time: 4 dpf
Protocol: as §1

Danio rerio embryo [27] = assay: EC10 Bladder size_Decrease; higher = less potent; conditions: exposure time: 4 dpf
Protocol: as §1

Danio rerio embryo [28] = assay: EC20 Bladder size_Decrease; higher = less potent; conditions: exposure time: 4 dpf
Protocol: as §1

Danio rerio embryo [29] = assay: EC20 Yolk sac size_Increase; higher = less potent
Protocol: as §1

Danio rerio embryo [30] = assay: EC20 Pericard size_Increase; higher = less potent
Protocol: as §1

Danio rerio embryo [31] = assay: EC10 Yolk sac size_Increase; higher = less potent
Protocol: as §1

Danio rerio embryo [32] = assay: EC10 Pericard size_Increase; higher = less potent
Protocol: as §1

Danio rerio embryo [33] = assay: EC20 Eye-jaw distance_Decrease; higher = less potent; conditions: exposure time: 4 dpf
Protocol: as §1

Danio rerio embryo [34] = assay: EC10 Eye-jaw distance_Decrease; higher = less potent; conditions: exposure time: 4 dpf
Protocol: as §1

Danio rerio embryo [35] = assay: EC20 Otolith-eye distance_Decrease; higher = less potent; conditions: exposure time: 4 dpf
Protocol: as §1

Danio rerio embryo [36] = assay: EC10 Otolith-eye distance_Decrease; higher = less potent; conditions: exposure time: 4 dpf
Protocol: as §1

Danio rerio embryo [37] = assay: spontaneous tail coiling frequency (coils/min/embryo); higher = more spontaneous movement; conditions: 25 hpf
Protocol: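 Spontaneous tail coilings of zebrafish embryos exposed from 2 hpf were recorded at 24-25 hpf in 1-min videos and detected by a KNIME workflow from grey-value variance. Betamethasone was tested as the dipropionate, diflorasone as the diacetate.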

CC1(C)O[C@@H]2[C@@H](CO[C@@]3(COS(N)(=O)=O)OC(C)(C)O[C@@H]23)O1 [Topiramate]
Conditions	EC10 Bladder size Decrease [µM]	EC10 Body length Decrease [µM]	EC10 Eye size Decrease [µM]	EC10 Eye-jaw distance Decrease [µM]	EC10 Heart rate [µM]	EC10 LMR dark [µM]	EC10 Lack of SB [µM]	EC10 Otolith-eye distance Decrease [µM]	EC20 Bladder size Decrease [µM]	EC20 Body length Decrease [µM]	EC20 Eye size Decrease [µM]	EC20 Eye-jaw distance Decrease [µM]	EC20 Heart rate [µM]	EC20 LMR dark [µM]	EC20 Lack of SB [µM]	EC20 Otolith-eye distance Decrease [µM]	EC50 Bladder size Decrease [µM]	EC50 Body length Decrease [µM]	EC50 Eye size Decrease [µM]	EC50 Eye-jaw distance Decrease [µM]	EC50 Heart rate [µM]	EC50 LMR dark [µM]	EC50 Lack of SB [µM]	EC50 Otolith-eye distance Decrease [µM]
Danio rerio embryo [1]	–	–	–	–	–	–	–	–	–	–	–	–	–	–	–	–	–	–	–	–	–	–	69.7	–
Danio rerio embryo [3]	–	–	–	–	–	–	–	–	–	–	–	–	–	–	–	–	–	–	–	–	–	461	–	–
Danio rerio embryo [4]	–	–	–	–	–	–	–	–	–	–	–	–	–	–	–	–	–	–	–	–	87.8	–	–	–
Danio rerio embryo [5]	–	–	–	–	–	–	–	–	–	–	–	–	–	–	–	–	–	–	242	–	–	–	–	–
Danio rerio embryo [7]	–	–	–	–	–	–	–	–	–	–	–	–	–	–	–	–	–	142	–	–	–	–	–	–
Danio rerio embryo [8]	–	–	–	–	–	–	–	–	–	–	–	–	–	–	–	–	49.5	–	–	–	–	–	–	–
Danio rerio embryo [11]	–	–	–	–	–	–	–	–	–	–	–	–	–	–	–	–	–	–	–	236	–	–	–	–
Danio rerio embryo [12]	–	–	–	–	–	–	–	–	–	–	–	–	–	–	–	–	–	–	–	–	–	–	–	80.9
Danio rerio embryo [13]	–	–	–	–	–	273	–	–	–	–	–	–	–	–	–	–	–	–	–	–	–	–	–	–
Danio rerio embryo [14]	–	–	–	–	–	–	–	–	–	–	–	–	–	331	–	–	–	–	–	–	–	–	–	–
Danio rerio embryo [15]	–	–	–	–	13.3	–	–	–	–	–	–	–	–	–	–	–	–	–	–	–	–	–	–	–
Danio rerio embryo [16]	–	–	–	–	–	–	29.7	–	–	–	–	–	–	–	–	–	–	–	–	–	–	–	–	–
Danio rerio embryo [17]	–	–	–	–	–	–	–	–	–	–	–	–	–	–	40.7	–	–	–	–	–	–	–	–	–
Danio rerio embryo [20]	–	–	–	–	–	–	–	–	–	–	–	–	28.3	–	–	–	–	–	–	–	–	–	–	–
Danio rerio embryo [21]	–	–	–	–	–	–	–	–	–	–	97.9	–	–	–	–	–	–	–	–	–	–	–	–	–
Danio rerio embryo [22]	–	–	57.7	–	–	–	–	–	–	–	–	–	–	–	–	–	–	–	–	–	–	–	–	–
Danio rerio embryo [25]	–	–	–	–	–	–	–	–	–	46.4	–	–	–	–	–	–	–	–	–	–	–	–	–	–
Danio rerio embryo [26]	–	24.1	–	–	–	–	–	–	–	–	–	–	–	–	–	–	–	–	–	–	–	–	–	–
Danio rerio embryo [27]	28.2	–	–	–	–	–	–	–	–	–	–	–	–	–	–	–	–	–	–	–	–	–	–	–
Danio rerio embryo [28]	–	–	–	–	–	–	–	–	34.7	–	–	–	–	–	–	–	–	–	–	–	–	–	–	–
Danio rerio embryo [33]	–	–	–	–	–	–	–	–	–	–	–	165	–	–	–	–	–	–	–	–	–	–	–	–
Danio rerio embryo [34]	–	–	–	133	–	–	–	–	–	–	–	–	–	–	–	–	–	–	–	–	–	–	–	–
Danio rerio embryo [35]	–	–	–	–	–	–	–	–	–	–	–	–	–	–	–	37.9	–	–	–	–	–	–	–	–
Danio rerio embryo [36]	–	–	–	–	–	–	–	24.4	–	–	–	–	–	–	–	–	–	–	–	–	–	–	–	–

Conditions	EC10 Any effect [µM]	EC10 Curvature Increase [µM]	EC10 Pericard size Increase [µM]	EC10 Yolk sac size Increase [µM]	EC20 Any effect [µM]	EC20 Curvature Increase [µM]	EC20 Pericard size Increase [µM]	EC20 Yolk sac size Increase [µM]	EC50 Any effect [µM]	EC50 Curvature Increase [µM]	EC50 Pericard size Increase [µM]	EC50 Yolk sac size Increase [µM]	spontaneous tail coiling frequency
Danio rerio embryo [2], exposure time: 2 dpf	–	–	–	–	–	–	–	–	321	–	–	–	–
Danio rerio embryo [2], exposure time: 4 dpf	–	–	–	–	–	–	–	–	94.9	–	–	–	–
Danio rerio embryo [6], exposure time: 2 dpf	–	–	–	–	–	–	–	–	–	1250	–	–	–
Danio rerio embryo [6], exposure time: 4 dpf	–	–	–	–	–	–	–	–	–	927	–	–	–
Danio rerio embryo [9], exposure time: 2 dpf	–	–	–	–	–	–	–	–	–	–	208	–	–
Danio rerio embryo [9], exposure time: 4 dpf	–	–	–	–	–	–	–	–	–	–	563	–	–
Danio rerio embryo [10], exposure time: 2 dpf	–	–	–	–	–	–	–	–	–	–	–	990	–
Danio rerio embryo [10], exposure time: 4 dpf	–	–	–	–	–	–	–	–	–	–	–	303	–
Danio rerio embryo [18], exposure time: 2 dpf	–	–	–	–	59.1	–	–	–	–	–	–	–	–
Danio rerio embryo [18], exposure time: 4 dpf	–	–	–	–	38.7	–	–	–	–	–	–	–	–
Danio rerio embryo [19], exposure time: 2 dpf	22	–	–	–	–	–	–	–	–	–	–	–	–
Danio rerio embryo [19], exposure time: 4 dpf	22.9	–	–	–	–	–	–	–	–	–	–	–	–
Danio rerio embryo [23], exposure time: 2 dpf	–	986	–	–	–	–	–	–	–	–	–	–	–
Danio rerio embryo [23], exposure time: 4 dpf	–	455	–	–	–	–	–	–	–	–	–	–	–
Danio rerio embryo [24], exposure time: 2 dpf	–	–	–	–	–	1080	–	–	–	–	–	–	–
Danio rerio embryo [24], exposure time: 4 dpf	–	–	–	–	–	591	–	–	–	–	–	–	–
Danio rerio embryo [29], exposure time: 2 dpf	–	–	–	–	–	–	–	722	–	–	–	–	–
Danio rerio embryo [29], exposure time: 4 dpf	–	–	–	–	–	–	–	149	–	–	–	–	–
Danio rerio embryo [30], exposure time: 2 dpf	–	–	–	–	–	–	33	–	–	–	–	–	–
Danio rerio embryo [30], exposure time: 4 dpf	–	–	–	–	–	–	302	–	–	–	–	–	–
Danio rerio embryo [31], exposure time: 2 dpf	–	–	–	601	–	–	–	–	–	–	–	–	–
Danio rerio embryo [31], exposure time: 4 dpf	–	–	–	98.8	–	–	–	–	–	–	–	–	–
Danio rerio embryo [32], exposure time: 2 dpf	–	–	11.2	–	–	–	–	–	–	–	–	–	–
Danio rerio embryo [32], exposure time: 4 dpf	–	–	210	–	–	–	–	–	–	–	–	–	–
Danio rerio embryo [37], 49.6 µM	–	–	–	–	–	–	–	–	–	–	–	–	0.85
Danio rerio embryo [37], 81.8 µM	–	–	–	–	–	–	–	–	–	–	–	–	1.99
Danio rerio embryo [37], 135 µM	–	–	–	–	–	–	–	–	–	–	–	–	2.03
Danio rerio embryo [37], 222.7 µM	–	–	–	–	–	–	–	–	–	–	–	–	0.24
Danio rerio embryo [37], 367.5 µM	–	–	–	–	–	–	–	–	–	–	–	–	1.31
Danio rerio embryo [37], 606.3 µM	–	–	–	–	–	–	–	–	–	–	–	–	2.44
Danio rerio embryo [37], 1000 µM	–	–	–	–	–	–	–	–	–	–	–	–	1.46
Danio rerio embryo [37], 1000.4 µM	–	–	–	–	–	–	–	–	–	–	–	–	2.49
Danio rerio embryo [37], 1473.4 µM	–	–	–	–	–	–	–	–	–	–	–	–	2.59
